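Briefly, cells in 96-well plates were exposed to five compound concentrations for 48 h, and endpoints were estimated by linear interpolation. GI50: concentration for 50% inhibition of growth. TGI: total growth inhibition.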
How the values were obtained:
Assay in all cases: DTP human tumour cell line panel, 48 h
[1] = tested on: 786-0 renal
[2] = tested on: A498 renal
[3] = tested on: A549 NSCLC
[4] = tested on: ACHN renal
[5] = tested on: BT-549 breast
[6] = tested on: CAKI-1 renal
[7] = tested on: CCRF-CEM leukemia
[8] = tested on: COLO 205 colon
[9] = tested on: DU-145 prostate
[10] = tested on: EKVX NSCLC
[11] = tested on: HCC-2998 colon
[12] = tested on: HCT-116 colon
[13] = tested on: HCT-15 colon
[14] = tested on: HL-60(TB) leukemia
[15] = tested on: HOP-62 NSCLC
[16] = tested on: HOP-92 NSCLC
[17] = tested on: HS 578T breast
[18] = tested on: HT29 colon
[19] = tested on: IGROV1 ovarian
[20] = tested on: KM12 colon
[21] = tested on: LOX IMVI melanoma
[22] = tested on: M14 melanoma
[23] = tested on: MALME-3M melanoma
[24] = tested on: MCF7 breast
[25] = tested on: MDA-MB-231 breast
[26] = tested on: MDA-MB-435
[27] = tested on: MOLT-4 leukemia
[28] = tested on: NCI-H226 lung
[29] = tested on: NCI-H23 lung
[30] = tested on: NCI-H460 lung
[31] = tested on: NCI-H522 lung
[32] = tested on: NCI/ADR-RES ovarian
[33] = tested on: OVCAR-3 ovarian
[34] = tested on: OVCAR-4 ovarian
[35] = tested on: OVCAR-5 ovarian
[36] = tested on: OVCAR-8 ovarian
[37] = tested on: PC-3 prostate
[38] = tested on: RPMI-8226 leukemia
[39] = tested on: RXF 393 renal
[40] = tested on: SF-268 CNS
[41] = tested on: SF-295 CNS
[42] = tested on: SF-539 CNS
[43] = tested on: SK-MEL-2 melanoma
[44] = tested on: SK-MEL-28 melanoma
[45] = tested on: SK-MEL-5 melanoma
[46] = tested on: SK-OV-3 ovarian
[47] = tested on: SN12C renal
[48] = tested on: SNB-19 CNS
[49] = tested on: SNB-75 CNS
[50] = tested on: SR leukemia
[51] = tested on: SW-620 colon
[52] = tested on: T-47D breast
[53] = tested on: TK-10 renal
[54] = tested on: U251 CNS
[55] = tested on: UACC-257 melanoma
[56] = tested on: UACC-62 melanoma
[57] = tested on: UO-31 renal

## C[n+]1c2ccccc2c(NC2CCNCC2)c2[nH]c3ccccc3c21
[1]
  GI50: 2.46 µM
  TGI: 16.3 µM
[2]
  GI50: 1.35 µM
  TGI: 5.05 µM
[3]
  GI50: 0.0812 µM
  TGI: 2.73 µM
[4]
  GI50: 4.68 µM
  TGI: 32.1 µM
[5]
  GI50: 2.13 µM
  TGI: 13.3 µM
[6]
  TGI: 7.09 µM
[7]
  GI50: 0.48 µM
  TGI: 3.13 µM
[8]
  GI50: 0.264 µM
  TGI: 2 µM
[9]
  GI50: 0.2 µM
  TGI: 4.32 µM
[10]
  GI50: 0.391 µM
  TGI: 5.39 µM
[11]
  GI50: 0.331 µM
  TGI: 1.63 µM
[12]
  GI50: 0.812 µM
  TGI: 4.53 µM
[13]
  GI50: 10.3 µM
  TGI: > 46 µM
[14]
  GI50: 1.8 µM
  TGI: > 22.6 µM
[15]
  GI50: 0.473 µM
  TGI: 5.17 µM
[16]
  GI50: 1.15 µM
  TGI: 6.86 µM
[17]
  GI50: 0.116 µM
  TGI: 0.82 µM
[18]
  GI50: 0.18 µM
  TGI: 2.64 µM
[19]
  GI50: 0.363 µM
  TGI: 5.05 µM
[20]
  GI50: 0.718 µM
  TGI: 5.77 µM
[21]
  GI50: 1.68 µM
  TGI: 5.52 µM
[22]
  GI50: 2.41 µM
  TGI: 13.4 µM
[23]
  GI50: 1.35 µM
  TGI: 3.55 µM
[24]
  GI50: 0.231 µM
  TGI: 2.2 µM
[25]
  GI50: 0.762 µM
  TGI: 7.19 µM
[26]
  GI50: 2.33 µM
  TGI: 8.42 µM
[27]
  GI50: 0.114 µM
[28]
  GI50: 0.384 µM
  TGI: 2.52 µM
[29]
  GI50: 0.0944 µM
  TGI: 0.88 µM
[30]
  GI50: 0.223 µM
  TGI: 1.53 µM
[31]
  GI50: 0.124 µM
  TGI: 0.699 µM
[32]
  GI50: > 100 µM
  TGI: > 100 µM
[33]
  GI50: 0.969 µM
  TGI: 5.87 µM
[34]
  GI50: 0.253 µM
  TGI: 2.57 µM
[35]
  GI50: 1.76 µM
  TGI: 17.6 µM
[36]
  GI50: 1.42 µM
  TGI: 12.8 µM
[37]
  GI50: 1.53 µM
  TGI: 5.75 µM
[38]
  GI50: 0.164 µM
  TGI: 1.17 µM
[39]
  TGI: 0.46 µM
[40]
  GI50: 0.0378 µM
  TGI: 0.773 µM
[41]
  GI50: 0.64 µM
  TGI: 8.32 µM
[42]
  GI50: 1.48 µM
  TGI: 6.83 µM
[43]
  GI50: 0.207 µM
  TGI: 1.22 µM
[44]
  GI50: 1.03 µM
  TGI: 2.95 µM
[45]
  GI50: 0.488 µM
  TGI: 2.32 µM
[46]
  GI50: 0.302 µM
  TGI: 3 µM
[47]
  GI50: 0.0324 µM
  TGI: 0.314 µM
[48]
  GI50: 0.269 µM
  TGI: 2.2 µM
[49]
  GI50: 0.524 µM
  TGI: 2.72 µM
[50]
  GI50: 1.7 µM
  TGI: > 100 µM
[51]
  GI50: 1.23 µM
  TGI: 6.73 µM
[52]
  GI50: 0.217 µM
  TGI: 2.04 µM
[53]
  GI50: 2.33 µM
  TGI: 8.53 µM
[54]
  GI50: 0.198 µM
  TGI: 1.91 µM
[55]
  GI50: 5.41 µM
  TGI: 23.7 µM
[56]
  GI50: 0.215 µM
  TGI: 1.08 µM
[57]
  GI50: 13.9 µM
  TGI: 43.7 µM
